The target in one experiment is T1, delta opioid receptor (Rattus norvegicus, UniProt P33533).
T1 construct: from tissue; host or cells: rat forebrain homogenate (male Wistar rats), particulate membrane preparation
T1 sequence (P33533 whole entry): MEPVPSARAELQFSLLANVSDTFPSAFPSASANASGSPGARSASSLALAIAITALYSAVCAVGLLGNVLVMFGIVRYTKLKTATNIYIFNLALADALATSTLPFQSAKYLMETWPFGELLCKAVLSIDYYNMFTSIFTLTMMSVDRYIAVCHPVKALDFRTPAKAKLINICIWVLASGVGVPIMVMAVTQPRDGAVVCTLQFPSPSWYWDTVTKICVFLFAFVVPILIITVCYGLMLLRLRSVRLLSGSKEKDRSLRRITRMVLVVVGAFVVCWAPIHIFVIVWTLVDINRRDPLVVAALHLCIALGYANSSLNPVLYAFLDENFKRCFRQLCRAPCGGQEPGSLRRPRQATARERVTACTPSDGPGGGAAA
Put plainly: Rat Brain Delta Opioid Receptor Binding Assay. Conditions: rat forebrain membrane preparation; [3H]DPDPE or [3H]naltrindole, 25° C., 2.5 h.
T2 sequence (P33535 whole entry): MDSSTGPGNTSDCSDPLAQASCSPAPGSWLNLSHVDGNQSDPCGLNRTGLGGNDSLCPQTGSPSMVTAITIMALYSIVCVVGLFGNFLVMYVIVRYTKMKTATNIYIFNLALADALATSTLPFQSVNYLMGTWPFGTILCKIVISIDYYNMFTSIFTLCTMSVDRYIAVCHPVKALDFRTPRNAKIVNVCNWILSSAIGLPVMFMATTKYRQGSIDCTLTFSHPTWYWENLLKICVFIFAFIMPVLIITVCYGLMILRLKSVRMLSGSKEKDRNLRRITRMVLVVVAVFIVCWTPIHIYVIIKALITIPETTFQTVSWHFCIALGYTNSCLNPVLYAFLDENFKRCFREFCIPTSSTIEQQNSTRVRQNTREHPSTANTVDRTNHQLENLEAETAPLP
`c1ccc(CN2[C@@H]3CC[C@H]2C[C@H](N2c4ccccc4Oc4cc(-c5ccncc5)ccc42)C3)nc1` [Compound 4m, Exo-3-Pyridin-4-yl-10-(8-pyridin-2-ylmethyl-8-aza-bicyclo[3.2.1]oct-3-yl)-10H-phenoxazine] gave a Ki of 869 nM.
`CCN(CC)C(=O)c1ccc2c(c1)Oc1ccccc1N2[C@@H]1C[C@H]2CC[C@@H](C1)N2CCc1ccccc1` [Compound 3u, Exo-10-(8-Phenethyl-8-aza-bicyclo[3.2.1]oct-3-yl)-10H-phenoxazine-3-carboxylic acid diethylamide]: the Ki is 1360 nM.
On to `c1cncc(-c2ccc3c(c2)Oc2ccccc2N3[C@H]2C[C@H]3CC[C@@H](C2)N3)c1` [Compound 5j, Endo-10-(8-Aza-bicyclo[3.2.1]oct-3-yl)-3-pyridin-3-yl-10H-phenoxazine], for which the Ki came to 409 nM.
`c1csc(CN2[C@@H]3CC[C@H]2C[C@@H](N2c4ccccc4Oc4cc(-c5ccncc5)ccc42)C3)c1` [Compound 6k, Endo-3-Pyridin-4-yl-10-(8-thiophen-2-ylmethyl-8-aza-bicyclo[3.2.1]oct-3-yl)-10H-phenoxazine] yielded an inhibitory constant (Ki) of 14200 nM.
`c1ccc(CCN2[C@@H]3CC[C@H]2CC(N2c4ccccc4Oc4cc(-c5nnn[nH]5)ccc42)C3)cc1` (stereo partly drawn) [Compound 7b, Endo-10-(8-Phenethyl-8-aza-bicyclo[3.2.1]oct-3-yl)-3-(1H-tetrazol-5-yl)-10H-phenoxazine] registered a Ki of 5480 nM.
Consider `COC(=O)c1ccc2c(c1)Oc1ccccc1N2C1CC2CCC(C1)N2C` (stereo not drawn) [Compound 2a, 10-(8-Methyl-8-aza-bicyclo[3.2.1]oct-3-yl)-10H-phenoxazine-3-carboxylic acid methyl ester], for which the Ki was 697 nM.
The same measure, in the same setting: with `c1ccc(CCN2[C@@H]3CC[C@H]2C[C@@H](N2c4ccccc4Oc4cc(-c5ccncc5)ccc42)C3)cc1` [Compound 3k, Endo-10-(8-Phenethyl-8-aza-bicyclo[3.2.1]oct-3-yl)-3-pyridin-4-yl-10H-phenoxazine] the figure was 3390 nM; with `c1ccc(CCN2[C@@H]3CC[C@H]2C[C@@H](N2c4ccccc4Oc4cc(-c5cccnc5)ccc42)C3)cc1` [Compound 6j, Endo-10-(8-Phenethyl-8-aza-bicyclo[3.2.1]oct-3-yl)-3-pyridin-3-yl-10H-phenoxazine], 3260 nM; with `c1ccc(CCN2[C@@H]3CC[C@H]2C[C@H](N2c4ccccc4Oc4cc(-c5cccnc5)ccc42)C3)cc1` [Compound 4l, Exo-10-(8-Phenethyl-8-aza-bicyclo[3.2.1]oct-3-yl)-3-pyridin-3-yl-10H-phenoxazine], 425 nM.
`N#Cc1ccc2c(c1)Sc1ccccc1N2C1C[C@H]2CC[C@@H](C1)N2` (mixture of isomers) [Compound 1aa, 10-(8-Aza-bicyclo[3.2.1]oct-3-yl)-10H-phenothiazine-3-carbonitrile] had a Ki of 931 nM.
On to `c1cncc(-c2ccc3c(c2)Oc2ccccc2N3[C@@H]2C[C@H]3CC[C@@H](C2)N3)c1` [Compound 3l], for which the Ki was 729 nM.
In turn, `CCN(CC)C(=O)c1ccc2c(c1)Oc1ccccc1N2[C@H]1C[C@H]2CC[C@@H](C1)N2CCc1ccccc1` [Compound 6t, Endo-10-(8-Phenethyl-8-aza-bicyclo[3.2.1]oct-3-yl)-10H-phenoxazine-3-carboxylic acid diethylamide] returned an inhibition constant Ki of 231 nM.
Still for that read-out and setting: the result for `c1ccc2c(c1)Oc1cc(-c3ccncc3)ccc1N2[C@@H]1C[C@H]2CC[C@@H](C1)N2` [Compound 2m, Exo-10-(8-Aza-bicyclo[3.2.1]oct-3-yl)-3-pyridin-4-yl-10H-phenoxazine] reads 634 nM.
Still for that read-out and setting: with `Oc1cccc2c1Oc1cc(-c3ccncc3)ccc1N2[C@H]1C[C@H]2CC[C@@H](C1)N2CCc1ccccc1` [Compound 10v, Endo-10-(8-Phenethyl-8-aza-bicyclo[3.2.1]oct-3-yl)-7-pyridin-4-yl-10H-phenoxazin-4-ol] the figure was above 10000 nM; with `CC(=O)Nc1ccccc1-c1ccc2c(c1)Oc1ccccc1N2[C@H]1C[C@H]2CC[C@@H](C1)N2Cc1cccs1` [Compound 4x, Endo-N-{2-[10-(8-Thiophen-2-ylmethyl-8-aza-bicyclo[3.2.1]oct-3-yl)-10H-phenoxazin-3-yl]-phenyl}-acetamide], 161 nM.
As for `c1ccc2c(c1)Oc1cc(-c3ccncc3)ccc1N2[C@H]1C[C@H]2CC[C@@H](C1)N2Cc1ccoc1` [Compound 5k, Endo-10-(8-Furan-3-ylmethyl-8-aza-bicyclo[3.2.1]oct-3-yl)-3-pyridin-4-yl-10H-phenoxazine], the affinity corresponds to a Ki of 247 nM.
Still for that read-out and setting: the result for `c1ccc(CN2[C@@H]3CC[C@H]2C[C@@H](N2c4ccccc4Oc4cc(-c5cccnc5)ccc42)C3)nc1` [Compound 7j, Endo-3-Pyridin-3-yl-10-(8-pyridin-2-ylmethyl-8-aza-bicyclo[3.2.1]oct-3-yl)-10H-phenoxazine] reads 104 nM.
Compound `COc1cccc2c1Oc1cc(-c3ccncc3)ccc1N2[C@H]1C[C@H]2CC[C@@H](C1)N2CCc1ccccc1` [Compound 13v, Endo-6-Methoxy-10-(8-phenethyl-8-aza-bicyclo[3.2.1]oct-3-yl)-3-pyridin-4-yl-10H-phenoxazine] showed a Ki above 10000 nM.
The same measure, in the same setting: the result for `c1ccc(CCN2[C@@H]3CC[C@H]2C[C@H](N2c4ccccc4Oc4cc(-c5ccncc5)ccc42)C3)cc1` [Compound 3m, Exo-10-(8-Phenethyl-8-aza-bicyclo[3.2.1]oct-3-yl)-3-pyridin-4-yl-10H-phenoxazine] reads 480 nM; that for `c1ccc2c(c1)Oc1cc(-c3ccncc3)ccc1N2[C@@H]1C[C@H]2CC[C@@H](C1)N2Cc1ccoc1` [Compound 5m, Exo-10-(8-Furan-3-ylmethyl-8-aza-bicyclo[3.2.1]oct-3-yl)-3-pyridin-4-yl-10H-phenoxazine], 1280 nM; that for `c1ccc(CN2[C@@H]3CC[C@H]2C[C@H](N2c4ccccc4Oc4cc(-c5cccnc5)ccc42)C3)nc1` [Compound 5l, Exo-3-Pyridin-3-yl-10-(8-pyridin-2-ylmethyl-8-aza-bicyclo[3.2.1]oct-3-yl)-10H-phenoxazine], 539 nM.
As to `c1ccc(CN2[C@@H]3CC[C@H]2C[C@@H](N2c4ccccc4Oc4cc(-c5ccncc5)ccc42)C3)nc1` [Compound 4k, Endo-3-Pyridin-4-yl-10-(8-pyridin-2-ylmethyl-8-aza-bicyclo[3.2.1]oct-3-yl)-10H-phenoxazine], affinity was put at a Ki of 445 nM.
`c1cncc(-c2ccc3c(c2)Oc2ccccc2N3[C@H]2C[C@H]3CC[C@@H](C2)N3Cc2cccs2)c1` [Compound 9j, Endo-3-Pyridin-3-yl-10-(8-thiophen-2-ylmethyl-8-aza-bicyclo[3.2.1]oct-3-yl)-10H-phenoxazine] returned a Ki of 11900 nM.
Consider `c1ccc2c(c1)Oc1cc(-c3ccncc3)ccc1N2[C@H]1C[C@H]2CC[C@@H](C1)N2` [Compound 2k, Endo-10-(8-Aza-bicyclo[3.2.1]oct-3-yl)-3-pyridin-4-yl-10H-phenoxazine], for which the affinity, expressed as Ki, was 696 nM.
Compound `CC(=O)Nc1ccccc1-c1ccc2c(c1)Oc1ccccc1N2[C@H]1C[C@H]2CC[C@@H](C1)N2CCc1ccccc1` [Compound 3x, Endo-N-{2-[10-(8-Phenethyl-8-aza-bicyclo[3.2.1]oct-3-yl)-10H-phenoxazin-3-yl]-phenyl}-acetamide] returned a Ki of 1590 nM.

A further experiment addresses T2, mu opioid receptor (Rattus norvegicus, UniProt P33535).
T2 construct: Following incubation with the mu selective peptide ligand, ˜0.8 nM [^3H]DAMGO; from tissue; host or cells: rat forebrain homogenate (male Wistar rats), particulate membrane preparation
Kind of experiment: Rat Brain Mu Opioid Receptor Binding Assay. Conditions: rat forebrain membrane preparation; [3H]DAMGO, 25° C., 2.5 h.
`c1ccc(CCN2[C@@H]3CC[C@H]2CC(N2c4ccccc4Oc4cc(-c5nnn[nH]5)ccc42)C3)cc1` (stereo partly drawn) [Compound 7b, Endo-10-(8-Phenethyl-8-aza-bicyclo[3.2.1]oct-3-yl)-3-(1H-tetrazol-5-yl)-10H-phenoxazine] displayed an inhibition constant Ki of 288 nM.
Same read-out and setting: the result for `COC(=O)c1ccc2c(c1)Oc1ccccc1N2C1CC2CCC(C1)N2C` (stereo not drawn) [Compound 2a, 10-(8-Methyl-8-aza-bicyclo[3.2.1]oct-3-yl)-10H-phenoxazine-3-carboxylic acid methyl ester] reads 5150 nM.

One may read the Ki as a dissociation constant, usually derived from enzyme kinetics or from competition with a known ligand.

The values above are taken from US7652005B2, “Tricyclic δ-opioid modulators” (Janssen Pharmaceutica N.V., priority 2004, dated 2010).
